Key:
γ-H2AX = γ-H2AX protein level and localization in testes and liver (western blot, immunofluorescence); type: in vivo, mouse
Procedure: (§1) For toxicity experiments, mice (n = 3/group) were treated with LLDT-8 (0.5 or 1.0 mg/kg) consecutively administered by gavage for 15 days. Controls received saline. Mice were killed on the 15th-day post-administration and blood, liver, kidney, spleen, testes, and epididymis were collected. About 500 μL blood samples were collected from the heart. The main lobe of the liver, kidney, spleen, and epididymis was fixed in 10% neutral buffered formalin for histological examination, and the left testicle was fixed in modified Davidson's buffer (30% of a 37–40% solution of formaldehyde, 15% ethanol, 5% glacial acetic acid, and 50% distilled H2O) for 16 h followed by 10% neutral buffered formalin for 24 h (Latendresse et al., [2002]). Tissue sections were stained with hematoxylin and eosin (H&E). Remaining tissues were stored at −80°C for RNA and protein extraction.
(§2) Cells were washed twice with ice-cold PBS (137 mM NaCl, 2.7 mM KCl, 10 mM Na2HPO4, and 1.8 mM KH2PO4, pH 7.4) and lysed in SDS sample buffer. Cell lysates, containing 20 μg of protein, were separated with SDS-PAGE (8%) and transferred to polyvinylidene difluoride membranes. After blocking in 5% non-fat milk in tris-buffered saline containing 0.1% Tween-20 (pH = 7.6), membranes were incubated with the appropriate primary antibodies at 4°C overnight. The primary antibodies γ-H2AX (Cat. No: 2577, Lot. No: 11, CST, USA) and Pol II (Cat. No: 05-623, Lot. No: 2397109, Millipore, USA) diluted 1:1000 in 5% bovine serum albumin (BSA, Cat. No. B2064-50G, Sigma, USA). Then the membranes were exposed to secondary antibodies (1:10,000, Cat. No.111-035-003, 115-035-003, Jackson ImmunoResearch Laboratories, USA) in 5% non-fat milk for 1 h at room temperature. Immunoreactive proteins were visualized using an enhanced chemiluminescent system (Cat. No. WBKLS0500, Millipore, Shanghai, China).
For immunofluorescence analysis, the paraffin-embedded testis tissue samples were deparaffinized three times in exchanges wash of xylene. The testis sections were then gradually rehydrated using decreasing ethanol concentrations followed by PBS (pH = 7.4). After antigen retrieval in boiling 0.1M citrate buffer (pH = 6.0), the tissue sections were placed in humidity chambers and incubated with 4% BSA in PBS for 2 h at room temperature. Then 1:400 1% BSA diluted γ-H2AX primary antibody (Cat. No: ab26350, Lot. No: GR305763-3, Abcam, USA) and isotope control Mouse IgG1 (Cat. No: sc-3877, Lot. No: F1316, Santa Cruz, USA) was used. After incubated with primary antibody overnight at 4°C, testis tissue samples were washed three times with PBS. […]

[1] = system: GC-2spd, GC-1spg and TM4 cells; assay: γ-H2AX protein level in three germ-cell lines (western blot); type: cell-based, mouse; conditions: 8h/16h treatment
Procedure: (§3) Mouse GC-1spg (spermatogonia-like, ATCC number: CRL-2053), TM4 (Sertoli cell-like, ATCC number: CRL-1715), and GC-2spd (spermatocyte-like, ATCC number: CRL-2196) were purchased from ATCC (Manassas, VA). Cells were grown in a 5% CO2 atmosphere at 37°C. TM4 was cultured in DMEM supplemented with 5% horse serum, 2.5% fetal bovine serum and 1x antibiotic-antimyotic (Cat. NO. 15240062, Life technologies). GC-1spg and GC-2spd were cultured in DMEM supplemented with 10% fetal bovine serum (Cat. No. F2442, Sigma, USA) and 1x antibiotic-antimyotic (Cat.NO. 15240062, Life technologies).
Cells were washed twice with ice-cold PBS (137 mM NaCl, 2.7 mM KCl, 10 mM Na2HPO4, and 1.8 mM KH2PO4, pH 7.4) and lysed in SDS sample buffer. Cell lysates, containing 20 μg of protein, were separated with SDS-PAGE (8%) and transferred to polyvinylidene difluoride membranes. […]
The effects of LLDT-8 on the expression of γ-H2AX was investigated in spermatocyte-like GC-2spd cells (A), spermatogonia-like cells (B) and sertoli-like cells (C) after 8h/16h treatment of LLDT-8 at indicated concentration. The protein level was quantified with ImageQuant software. β-actin was used as a loading control. Significant difference was determined by one-way Anova, Bars represent the mean ± SD, n = 3, * p<0.05, ** p<0.01 vs control group (0 nM).

RNA polymerase II = RNA polymerase II protein level in testes and liver (western blot); type: in vivo, mouse; conditions: 0.5–1 mg/kg, 15 days
Procedure: as §1, §2

GC-2spd cells = assay: Pol II protein level in spermatocyte-like cells (western blot); type: cell-based, mouse
Procedure: as §3
as §2, with “Then the membranes were exposed to secondary antibodies (1:10,000, Cat. No.111-035-003, 115-035-003, Jackson ImmunoResearch Laboratories, USA) in 5% non-fat milk for 1 h at room temperature. Immunoreactive proteins were visualized using an enhanced chemiluminescent system (Cat. No. WBKLS0500, Millipore, Shanghai, China).” left out

Structure (SMILES): CC(C)[C@]12O[C@H]1[C@@H]1O[C@]13[C@]1(O[C@H]1C[C@@]1(O)C4=C(CC[C@]31C)C(=O)OC4)[C@@H]2O [LLDT-8, (5R)-5-hydroxytriptolide]
- XY bodies indicated by γ-H2AX foci in testes of WT mice (γ-H2AX; 1.0 mg/kg LLDT-8, 15 days): decreased
- γ-H2AX protein level (immunoblotting) in testes and liver (γ-H2AX; 0.5–1 mg/kg, 15 days): reduction of γ-H2AX protein level in the testes but not in the liver
- XY bodies indicated by γ-H2AX foci in testes of KO mice (γ-H2AX; LLDT-8 treated, 15 days): disappeared
- reduction of γ-H2AX in the testes of WT mice (γ-H2AX; immunoblotting, not statistically significant): up to 40%
- protein levels of γ-H2AX in three germ-cell lines [1]: did not decrease
- Pol II protein in the testes of KO mice (RNA polymerase II): decreased
- Pol II protein level in the livers of KO mice (RNA polymerase II): did not change
- expression of Pol II in the testes and liver of WT mice (RNA polymerase II): did not change significantly
- Pol II protein (GC-2spd cells): dose- and time-dependently reduced

From PMC5702336, “Critical Role of Hepatic Cyp450s in the Testis-Specific Toxicity of (5R)-5-Hydroxytriptolide in C57BL/6 Mice” (Frontiers in Pharmacology, 2017)
